In patent publication US6090785A, “Substituted N-carboxyalkylpeptidyl derivatives as antidegenerative agents” (Merck & Co., Inc., priority 1992, dated 2000):

Legend:
Type in all cases: biochemical
stromelysin = stromelysin (Homo sapiens, UniProt P08254); assay: Stromelysin inhibition assay (HPLC/fluorometric determination of remaining peptide substrate); details: SLN = stromelysin; substrate 5 μM, enzyme 1.5 nM
Method: Briefly the assay may be carried out by incubating for four hours the inhibitor in dimethyl sulfoxide (DMSO) and 25 μl of 0.3726 μg/ml stromelysin, then adding 60 μl of 11.24 μM substrate and incubating the resulting mixture for 18 hours. The final concentrations of the substrate is 5 μM and of the enzyme 1.5 nM. At this time 50 μl of 0.3 M H3 PO4 is added and a portion of the mixture injected onto an HPLC column and the remaining substrate determined by fluorometric detection. The area of the substrate is quantitated and is plotted as a function of the inhibitor concentration. The Ki is calculated using the following equation: [formula] where area inhibited and ^area control are integrated HPLC areas for substrate for inhibited and uninhibited reactions, respectively; [I] is the inhibitor concentration; [S] is the substrate concentration.

gelatinase = assay: Gelatinase inhibition assay with fluorogenic Dnp-peptide substrate (method of Stack et al); details: Gel = gelatinase
Description: (§1) The capacity of representative compounds of formula I to inhibit collagenase and gelatinase lysis may be determined using the method of M. S. Stack et al, Biol. Chem 264, 4277 (1989). In such assay, a fluorogenic substrate Dnp-Pro-Leu-Gly-Leu-Trp-Ala-D-Arg.(SEQ ID NO:2) where the "Dnp" designation indicates a "dinitrophenyl" group and this group is indicated by "Xaa" in the Sequence Listing. is used. The tryptophan fluorescence is efficiently quenched by the dinitrophenyl group but when it is hydrolyzed by collagenase or gelatinase, there is increased fluorescence with cleavage occurring at the Gly-Leu bond.
(§2) Assays were performed in 0.05M Tris, 5 mM CaCl2, 0.2M NaCl up to 20% Me2 SO, pH 7.7 at either […] or 37° C. using peptide concentrations of 2.5 to 40 μM.
(§3) After addition of enzyme to initiate the reaction, the initial rate of substrate hydrolysis is determined by monitoring the increase in fluorescence emission at 346 nm. using an excitation wavelength of 280 nm. To determine the inhibitory activity the hydrolysis is measured fluorimetrically in the presence of increasing concentrations of the inhibitor and the Ki is determined.

collagenase = target: T1, collagenase (Homo sapiens, UniProt P03956); assay: Collagenase inhibition assay with fluorogenic Dnp-peptide substrate (method of Stack et al); details: CGase = collagenase
T1 sequence (P03956 100-469): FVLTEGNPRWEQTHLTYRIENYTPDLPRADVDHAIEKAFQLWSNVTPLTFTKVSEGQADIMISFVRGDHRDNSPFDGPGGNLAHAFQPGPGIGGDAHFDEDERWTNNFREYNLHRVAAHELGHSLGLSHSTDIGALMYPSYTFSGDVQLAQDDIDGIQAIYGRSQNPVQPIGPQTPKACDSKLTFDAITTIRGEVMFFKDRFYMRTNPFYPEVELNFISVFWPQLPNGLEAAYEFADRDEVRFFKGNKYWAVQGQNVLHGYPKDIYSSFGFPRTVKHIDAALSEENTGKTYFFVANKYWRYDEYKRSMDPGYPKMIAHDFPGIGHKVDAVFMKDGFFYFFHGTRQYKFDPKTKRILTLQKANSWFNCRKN
Description: as §1, §2, §3

Chain of stromelysin (P08254 100-477): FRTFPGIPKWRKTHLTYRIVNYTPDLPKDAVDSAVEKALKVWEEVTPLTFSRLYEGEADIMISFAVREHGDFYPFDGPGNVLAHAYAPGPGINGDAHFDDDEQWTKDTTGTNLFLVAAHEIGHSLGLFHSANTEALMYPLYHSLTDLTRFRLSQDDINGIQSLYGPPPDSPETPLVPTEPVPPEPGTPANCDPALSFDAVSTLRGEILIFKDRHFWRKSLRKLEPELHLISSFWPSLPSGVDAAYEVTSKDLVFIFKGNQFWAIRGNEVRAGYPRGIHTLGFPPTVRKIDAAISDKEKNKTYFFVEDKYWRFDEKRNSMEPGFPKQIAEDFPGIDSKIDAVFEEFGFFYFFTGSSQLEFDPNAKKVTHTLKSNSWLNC

## C[C@@H](N[C@@H](CCCCCCCCCN)C(=O)N[C@@H](CCCNC(=N)N)C(=O)Nc1ccccc1)C(=O)O [Compound 9d]
stromelysin
  Ki: 0.37 µM
gelatinase
  Ki: 0.11 µM

## CCCCCCCC[C@H](N[C@H](C)C(=O)O)C(=O)N[C@@H](CCCNC(=N)N)C(=O)Nc1ccccc1 [Compound 9c]
stromelysin
  Ki: 1.6 µM
gelatinase
  Ki: 0.12 µM

## CC(C)C[C@H](NC(=O)[C@H](CCCCCCCCCN)N[C@H](C)C(=O)O)C(=O)Nc1ccccc1 [Compound 9a]
stromelysin
  Ki: 0.24 µM
gelatinase
  Ki: 0.5 µM
collagenase
  Ki: > 10 µM

## CCCCCCCC[C@H](N[C@H](C)C(=O)O)C(=O)N[C@@H](CC(C)C)C(=O)Nc1ccccc1 [Compound 9b]
stromelysin
  Ki: 0.57 µM
gelatinase
  Ki: 0.34 µM
collagenase
  Ki: > 10 µM

## CCCCCCCCCC[C@H](N[C@H](C)C(=O)O)C(=O)N[C@@H](CC(C)C)C(=O)Nc1ccccc1 [Compound 9e]
stromelysin
  Ki: 0.85 µM
gelatinase
  Ki: 0.56 µM
